Assay results published in patent publication US20110130346A1, “PEPTIDE CONJUGATES FOR DELVERY OF BIOLOGICALLY ACTIVE COMPOUNDS” (ISIS INNOVATION LIMITED, priority 2008, published 2011).

Legend:
[1] = system: exon and intron 23 of the dystrophin gene; test: Example 3: intramuscular glucose-formulated AOs, Western blot of dystrophin; type: in vivo, mdx mice
Procedure: (§1) For intramuscular studies the TA muscle of each experimental mdx mouse was injected with a 40 μl dose of PNA and PNA-peptide conjugates with saline at a final concentration of 125 μg/ml, and the contralateral muscle was injected with saline. For systemic intravenous injections, X μg PNA or PNA-peptide conjugates in 80 μl saline buffer were injected into tail vein of mdx mice at the final dose of 25 mg/kg and 6 mg/kg, respectively. The animals were killed at various time points after injection by CO2 inhalation and tissues were removed and snap-frozen in liquid nitrogen-cooled isopentane and stored at −80° C.
The collected sections were placed in a 1.5 ml polypropylene eppendorf tube (Anachem, UK) on dry ice. […] The supernatant was collected and the protein concentration was quantified by Bradford assay (Sigma, UK). […] The bound primary antibody was detected by horseradish peroxidise-conjugated rabbit anti-mouse IgGs and the ECL Western Blotting Analysis system (Amersham Pharmacia Biosciences, UK). The intensity of the bands obtained from treated mdx muscles was measured by Image J software; the quantification is based on band intensity and area, and is compared with that from normal muscles of C57BL6 mice.

[2] = system: exon and intron 23 of the dystrophin gene; test: Example 3: intramuscular injection of glucose-formulated AOs, dystrophin-positive myofibres by immunohistochemistry; type: in vivo; settings: intramuscular into TA, 8 week old mdx mice, two weeks
Procedure: Here we study a novel delivery glucose formulation by evaluating it via local intramuscular injection into the mdx mouse tibialis anterior (TA) muscle. Initial experiments were performed in 6-8 week old mdx mice (referred to as 8 weeks) by treatment with a single dose of 5 ug of 2′OMePS AO formulated in 5% glucose. In a parallel control study, age-matched control mdx mice were treated with the same AO dose formulated in standard saline buffer.
For intramuscular studies the TA muscle of each experimental mdx mouse was injected with a 40 μl dose of PNA and PNA-peptide conjugates with saline at a final concentration of 125 μg/ml, and the contralateral muscle was injected with saline. […]
(§2) Sections of 8 μm were cut from at least two-thirds of the muscle length of TA, quadriceps, gastrocnemius, biceps, abdominal wall and diaphragm muscles and cardiac muscle at 100 μm intervals. […] The maximum number of dystrophin-positive fibres in one section was counted using the Zeiss AxioVision fluorescence microscope. […] Polyclonal antibodies were detected by goat-anti-rabbit IgGs Alexa Fluro 594 (Molecular Probe, UK). […] Polyclonal antibodies were detected by goat-anti-rabbit IgGs Alexa 594 and the monoclonal antibodies by goat-anti-mouse IgGs Alexa 594 (Molecular Probe, UK). […]

[3] = system: exon and intron 23 of the dystrophin gene; test: Example 3: intravenous glucose-formulated AOs, RT-PCR of splice correction; type: in vivo, mdx mice; settings: single intravenous dose of 25 mg/kg, various muscle groups
Text: (§3) Given the dramatic enhancement in AO uptake and exon skipping activity and dystrophin restoration observed following intramuscular delivery of glucose-formulated AO we wished to study whether or not such enhancement could also facilitate improved systemic AO delivery and splice correcting activity. Initially we chose to study whether or not systemic PMO AO delivery was enhanced following glucose formulation. We compared PMO formulated in saline with PMO formulated in either 5% glucose or formulated in glucose at a final concentration of 4.5% and delivered these via a single intravenous dose of 25 mg/kg in mdx mice.
We further studied the intravenous enhancing effects by investigating the effects on a peptide conjugated PMO compound using a well characterised arginine-rich peptide (RXR)4.
Total RNA was extracted from skeletal muscle and heart tissue with Trizol (Invitrogen, UK) and 200 ng of RNA template was used for 20 μl RT-PCR with OneStep RT-PCR kit (Qiagen, UK). The primer sequences for the initial RT-PCR were Exon20Fo 5′-[…]-3′ and Ex26Ro 5′-[…]-3′ for amplification of messenger RNA from exons 20 to 26. The cycle conditions were 95° C. for 30 seconds, 55° C. for 1 minute and 72° C. for 2 minutes for 25 cycles. RT-PCR product (1 μl) was then used as the template for secondary PCR performed in 25 μl with 0.5 U Taq DNA polymerase (Invitrogen, UK). […]

[4] = system: exon and intron 23 of the dystrophin gene; test: Example 3: intravenous glucose-formulated AOs, dystrophin immunohistochemistry; type: in vivo, mdx mice; settings: single intravenous dose of 25 mg/kg
Text: as §3
We further studied the intravenous enhancing effects by investigating the effects on a peptide conjugated PMO compound using a well characterised arginine-rich peptide (RXR)4. […]
as §2

[5] = system: exon and intron 23 of the dystrophin gene; test: Example 3: intramuscular glucose-formulated AOs, RT-PCR of exon skipping; type: in vivo, mdx mice
Procedure: Total RNA was extracted from skeletal muscle and heart tissue with Trizol (Invitrogen, UK) and 200 ng of RNA template was used for 20 μl RT-PCR with OneStep RT-PCR kit (Qiagen, UK). The primer sequences for the initial RT-PCR were Exon20Fo 5′-[…]-3′ and Ex26Ro 5′-[…]-3′ for amplification of messenger RNA from exons 20 to 26. The cycle conditions were 95° C. for 30 seconds, 55° C. for 1 minute and 72° C. for 2 minutes for 25 cycles. RT-PCR product (1 μl) was then used as the template for secondary PCR performed in 25 μl with 0.5 U Taq DNA polymerase (Invitrogen, UK). The primer sequences for the second round were Ex20Fi 5′-[…]-3′ and Ex24Ri 5′-[…]-3. The cycle conditions were 95° C. for 1 minute, 57° C. for 1 minute, and 72° C. for 2 min for 25 cycles. The products were examined by electrophoresis on a 2% agarose gel.
as §1, with “The animals were killed at various time points after injection by CO2 inhalation and tissues were removed and snap-frozen in liquid nitrogen-cooled isopentane and stored at −80° C.” left out

## 5′-GGCCAAACCTCGGCTTACCTGAAAT-3′ (morpholino backbone, further chemistry not given here) [PMO, neutrally charged PMO AO, M23D, 25 mer]
[1]
  dystrophin protein expression on Western blot, glucose versus saline formulation: increased dystrophin protein expression
[2]
  dystrophin-positive myofibres, 5% glucose formulation compared with saline formulation: no significant difference
[3]
  dystrophin splice correction at the RNA level, glucose versus saline formulation: enhanced dystrophin splice correction
[4]
  corrected dystrophin-positive fibres, glucose (5% or 4.5%) versus saline formulation: significant enhancements
[5]
  exon skipping activity at the RNA level, glucose versus saline formulation: enhanced exon skipping activity
